Source: ChEMBL document CHEMBL1909046, “DrugMatrix in vitro pharmacology data”

How the values were obtained:
[1] = DRUGMATRIX: Calcium Channel Type L, Dihydropyridine radioligand binding (ligand: [3H] Nitrendipine); format: cell membranes, Rattus norvegicus, Wistar, Cerebral cortex, Membrane; settings: Not Active = under 50% inhibition at 10 µM
[2] = molecular target: 5-hydroxytryptamine receptor 6 (Homo sapiens, UniProt P50406); format: cell membranes, HeLa, Membrane; settings: hela; note: in other assays of this panel Not Active means under 50% inhibition at 10 µM
5-hydroxytryptamine receptor 6, sequence (P50406 whole entry): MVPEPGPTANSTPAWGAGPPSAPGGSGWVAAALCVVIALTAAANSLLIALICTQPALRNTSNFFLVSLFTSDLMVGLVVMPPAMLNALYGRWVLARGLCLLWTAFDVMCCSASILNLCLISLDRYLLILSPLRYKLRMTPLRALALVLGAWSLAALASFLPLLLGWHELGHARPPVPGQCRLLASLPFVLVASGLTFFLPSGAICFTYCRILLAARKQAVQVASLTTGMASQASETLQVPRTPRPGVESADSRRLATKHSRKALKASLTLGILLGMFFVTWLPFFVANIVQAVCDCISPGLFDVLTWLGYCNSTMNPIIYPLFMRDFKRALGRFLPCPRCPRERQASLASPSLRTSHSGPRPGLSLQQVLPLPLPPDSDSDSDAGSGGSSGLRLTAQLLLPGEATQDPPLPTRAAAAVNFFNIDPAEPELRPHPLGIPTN

[3] = DRUGMATRIX: Sigma2 radioligand binding (ligand: [3H] Ifenprodil); format: cell membranes, Rattus norvegicus, Wistar, Brain, Membrane; settings: Not Active = under 50% inhibition at 10 µM
[4] = DRUGMATRIX: Potassium Channel [KATP] radioligand binding (ligand: [3H] Glyburide); format: cell membranes, Membrane; settings: hit-t15; Not Active = under 50% inhibition at 10 µM
[5] = molecular target: Protein kinase C alpha type (Homo sapiens, UniProt P17252); format: cell-based; settings: sf9;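 note: inhibition of PKCalpha kinase activity measured in an enzyme assay with histone as the phosphorylation substrate; in other assays of this panel Not Active means under 50% inhibition at 10 µM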

COBALT(II) ACETYLACETONATE
Not Active: IC50 [1] | Ki [1] | IC50 [2] | Ki [2] | IC50 [3] | Ki [3] | IC50 [4] | Ki [4] | IC50 [5] | Ki [5]

INSULIN HUMAN
Not Active: IC50 [1] | Ki [1] | IC50 [2] | Ki [2] | IC50 [3] | Ki [3] | IC50 [4] | Ki [4] | IC50 [5] | Ki [5]

POLYVINYL ALCOHOL
Not Active: IC50 [1] | Ki [1] | IC50 [2] | Ki [2] | IC50 [3] | Ki [3] | IC50 [4] | Ki [4] | IC50 [5] | Ki [5]
